Literature values as cited in patent publication US20060246141A1, “Nanoparticulate lipase inhibitor formulations” (Elan Pharma International, Limited, priority 2005, published 2006).
Where two headings read alike, the source gives them in different places.

Tests used:
[1] = physiological pH range
[2] = test system: gastric and pancreatic lipases; settings: recommended therapeutic dose of 120 mg three times a day

Solubility (in chloroform): freely soluble | Solubility (in methanol and ethanol): very soluble | Solubility (in water): practically insoluble | pKa [1]: no pKa within the physiological pH range
SMILES: CCCCCCCCCCCC(CC1OC(=O)[C@H]1CCCCCC)OC(=O)C(CC(C)C)NC=O (stereo in doubt) [Orlistat, (S)-2-formylamino-4-methyl-pentanoic acid (S)-1-[[(2S, 3S)-3-hexyl-4-oxo-2-oxetanyl]methyl]-dodecyl ester]
Inhibition of dietary fat absorption [2]: approximately 30%
